Experimental data: the NIST ThermoML archive (doi:10.1021/je800463k)

Assay: mn = molality of the nth substance listed, in mol/kg
Conditions: 101 kPa, Liquid; for mass density: Pycnometric method; for electrical conductivity / speed of sound / viscosity: 303.15 K; for electrical conductivity: Frequency=0.001 MHz, Alternating current cell with electrodes; for speed of sound: Frequency=2 MHz

[Mg+2].[O-][Cl+3]([O-])([O-])[O-].[O-][Cl+3]([O-])([O-])[O-] [magnesium perchlorate] + CO
Conditions	mass density [kg/m3]
301.65 K, m1 = 0.0925	796.87
302.7 K, m1 = 0.3228	824.56
302.75 K, m1 = 0.2872	820.44
302.75 K, m1 = 2	1006.5
302.9 K, m1 = 0.078	794.53
303.05 K, m1 = 0.1673	805.22
303.5 K, m1 = 0.4313	838.73
303.55 K, m1 = 1.059	918.43
303.55 K, m1 = 1.717	980.32
303.9 K, m1 = 0.0542	788.92
304.2 K, m1 = 0.0925	794.46
304.55 K, m1 = 1.395	955.29
304.85 K, m1 = 0.6444	864.55
305.45 K, m1 = 0.2872	817.88
305.5 K, m1 = 0.078	792.01
305.5 K, m1 = 0.3228	821.98
305.7 K, m1 = 0.1673	802.67
305.75 K, m1 = 1.059	916.49
305.95 K, m1 = 0.6444	863.6
306 K, m1 = 1.717	978.23
306.55 K, m1 = 0.4313	836.04
306.6 K, m1 = 0.0542	786.39
306.65 K, m1 = 2	1003.3
306.8 K, m1 = 0.0925	791.94
306.95 K, m1 = 1.395	953.22
307.15 K, m1 = 0.078	790.37
307.25 K, m1 = 0.2872	816.19
307.3 K, m1 = 0.3228	820.29
307.35 K, m1 = 0.1673	801.01
308 K, m1 = 1.059	914.51
308.05 K, m1 = 0.6444	861.75
308.35 K, m1 = 0.0542	784.7
308.45 K, m1 = 1.717	976.24
308.5 K, m1 = 0.4313	834.26
309.25 K, m1 = 2	1001.1
309.3 K, m1 = 1.395	951.18
309.35 K, m1 = 0.0925	789.49
309.7 K, m1 = 0.078	787.95
309.9 K, m1 = 0.2872	813.69
309.95 K, m1 = 0.3228	817.77
310.85 K, m1 = 1.717	974.13

Conditions	electrical conductivity [S/m]	speed of sound [m/s]	viscosity [mPa·s]
m1 = 0.0542	0.3785	1094.8	0.5431
m1 = 0.078	0.5625	1101.6	–
m1 = 0.0925	0.6223	1104.6	0.5669
m1 = 0.1673	0.9485	1114	0.6084
m1 = 0.2872	1.407	1129.8	0.684
m1 = 0.3228	1.534	1133.5	0.7005
m1 = 0.4313	1.913	1147	0.7937
m1 = 0.6444	2.541	1173.3	0.9348
m1 = 1.059	3.367	1217	1.323
m1 = 1.395	3.746	1253.3	1.732
m1 = 1.717	3.979	1277.6	1.99
m1 = 2	4.1	1301.6	2.362
